Each structure is given as a SMILES string.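 These data come from cells grown in 96-well plates and exposed to compound for 48 hours at five concentrations. Abbreviation: GI50, concentration required for 50% inhibition of growth. TGI: total growth inhibition.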

From PubChem BioAssay (NCI) come the findings set out here.

Among the test systems are MDA-MB-231 breast; HCT-15 colon; 786-0 renal; BT-549 breast; SK-MEL-28 melanoma; SNB-19 CNS; HOP-92 NSCLC; UACC-257 melanoma; HT29 colon; NCI-H522 lung.
Assay in all cases: DTP human tumour cell line panel, 48 h

Take `Fc1ccc2c(c1)C1=NN(c3ccccc3)C(F)C1CO2` (stereo not given): the GI50 (in general, the concentration at which growth is held to half of that of the control) was 5.36 µM in the assay with MDA-MB-231 breast; 8.19 µM in the assay on HCT-15 colon; 12.8 µM in the assay on 786-0 renal; 10.4 µM with BT-549 breast; 9.51 µM with SK-MEL-28 melanoma; 26.6 µM in the assay on SNB-19 CNS. For the same compound, the GI50 in the assay with HOP-92 NSCLC was 9.55 µM; with UACC-257 melanoma it was 9.7 µM; in the assay on HT29 colon it was 10 µM; in the assay on NCI-H522 lung, greater than 50 µM. The total growth inhibition concentration (TGI) (in general, the concentration at which net growth stops) with MDA-MB-231 breast was 13.6 µM; with HCT-15 colon it was 19.9 µM; in the assay on 786-0 renal, greater than 50 µM; in the assay with BT-549 breast it was 22.2 µM; in the assay with SK-MEL-28 melanoma, 22 µM; with SNB-19 CNS, greater than 50 µM. For the same compound, the TGI is 23.7 µM in the assay with HOP-92 NSCLC, 26.5 µM in the assay on UACC-257 melanoma, 26.3 µM with HT29 colon and greater than 50 µM in the assay on NCI-H522 lung.
